Reference: paper PMC12114461, “A Natural Inhibitor, 1′S-1′-Acetoxychavicol Acetate, Against Testosterone-Induced Alopecia via NADPH Oxidase Regulation” (Molecules, 2025)

Legend:
Assay type in all cases: biochemical
Duox1 (hDuox1) = target: T1, Duox1 (hDuox1) (Homo sapiens, UniProt Q9NRD9); test: lucigenin chemiluminescence ROS assay in Drosophila membranes expressing hDuox1
T1 construct: membranes from transgenic Drosophila (Duox knockdown) over-expressing human Duox1

Nox2 (hNox2) = target: T2, Nox2 (hNox2) (Homo sapiens, UniProt P04839); test: lucigenin chemiluminescence ROS assay in Drosophila membranes expressing hNox2
T2 construct: gene CYBB; membranes from transgenic Drosophila (Duox knockdown) over-expressing human Nox2
T2 sequence (P04839 2-570): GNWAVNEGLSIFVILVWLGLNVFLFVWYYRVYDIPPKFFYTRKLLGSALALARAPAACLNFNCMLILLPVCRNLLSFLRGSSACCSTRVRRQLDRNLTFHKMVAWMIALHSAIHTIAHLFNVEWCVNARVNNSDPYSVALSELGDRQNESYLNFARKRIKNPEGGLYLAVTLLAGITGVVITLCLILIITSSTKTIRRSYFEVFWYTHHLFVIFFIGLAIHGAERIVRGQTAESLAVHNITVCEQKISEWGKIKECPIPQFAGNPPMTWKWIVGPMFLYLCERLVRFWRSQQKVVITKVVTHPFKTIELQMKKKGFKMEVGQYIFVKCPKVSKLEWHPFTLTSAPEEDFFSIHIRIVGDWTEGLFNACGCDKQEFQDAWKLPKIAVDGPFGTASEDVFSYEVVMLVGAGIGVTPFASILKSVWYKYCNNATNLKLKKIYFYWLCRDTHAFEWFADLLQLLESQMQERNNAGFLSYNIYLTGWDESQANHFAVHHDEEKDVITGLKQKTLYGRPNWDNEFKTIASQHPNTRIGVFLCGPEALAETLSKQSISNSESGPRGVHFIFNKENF

Nox4 (hNox4) = target: T3, Nox4 (hNox4) (Homo sapiens, UniProt Q9NPH5); test: lucigenin chemiluminescence ROS assay in Drosophila membranes expressing hNox4
T3 construct: membranes from transgenic Drosophila (Duox knockdown) over-expressing human Nox4
T3 sequence (Q9NPH5 1-578): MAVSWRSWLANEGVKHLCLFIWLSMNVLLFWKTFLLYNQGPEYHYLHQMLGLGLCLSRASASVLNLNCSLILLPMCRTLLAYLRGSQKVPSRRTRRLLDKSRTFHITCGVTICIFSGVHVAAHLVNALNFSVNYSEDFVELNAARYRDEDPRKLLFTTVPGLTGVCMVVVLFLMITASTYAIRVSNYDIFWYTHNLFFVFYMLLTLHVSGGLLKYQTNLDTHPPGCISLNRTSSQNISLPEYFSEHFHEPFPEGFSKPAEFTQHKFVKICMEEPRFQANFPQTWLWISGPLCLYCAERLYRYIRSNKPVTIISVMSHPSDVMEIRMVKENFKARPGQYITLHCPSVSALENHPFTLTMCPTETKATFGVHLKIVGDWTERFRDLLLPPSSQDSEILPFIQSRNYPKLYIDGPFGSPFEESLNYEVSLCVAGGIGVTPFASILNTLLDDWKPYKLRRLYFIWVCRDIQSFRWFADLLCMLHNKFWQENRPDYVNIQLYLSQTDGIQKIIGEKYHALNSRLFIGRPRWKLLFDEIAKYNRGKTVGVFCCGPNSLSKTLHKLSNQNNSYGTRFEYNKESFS

Nox1 (hNox1) = target: T4, Nox1 (hNox1) (Homo sapiens, UniProt Q9Y5S8); test: lucigenin chemiluminescence ROS assay in Drosophila membranes expressing hNox1
T4 construct: membranes from transgenic Drosophila (Duox knockdown) over-expressing human Nox1
T4 sequence (Q9Y5S8 1-564): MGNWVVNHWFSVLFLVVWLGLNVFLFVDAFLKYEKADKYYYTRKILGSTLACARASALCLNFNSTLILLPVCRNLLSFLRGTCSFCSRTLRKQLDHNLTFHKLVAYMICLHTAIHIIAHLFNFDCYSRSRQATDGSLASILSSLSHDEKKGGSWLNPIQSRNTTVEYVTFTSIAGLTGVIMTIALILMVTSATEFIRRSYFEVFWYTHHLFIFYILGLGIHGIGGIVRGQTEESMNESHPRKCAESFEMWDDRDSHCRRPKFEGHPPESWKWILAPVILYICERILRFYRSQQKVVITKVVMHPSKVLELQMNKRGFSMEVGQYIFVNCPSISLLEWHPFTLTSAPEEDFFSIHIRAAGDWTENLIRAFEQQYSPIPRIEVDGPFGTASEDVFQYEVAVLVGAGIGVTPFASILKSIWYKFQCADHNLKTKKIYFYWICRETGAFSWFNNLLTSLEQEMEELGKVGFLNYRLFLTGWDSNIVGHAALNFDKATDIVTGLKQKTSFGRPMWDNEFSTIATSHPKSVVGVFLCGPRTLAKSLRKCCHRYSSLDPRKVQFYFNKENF

T1 sequence (Q9NRD9 22-1551): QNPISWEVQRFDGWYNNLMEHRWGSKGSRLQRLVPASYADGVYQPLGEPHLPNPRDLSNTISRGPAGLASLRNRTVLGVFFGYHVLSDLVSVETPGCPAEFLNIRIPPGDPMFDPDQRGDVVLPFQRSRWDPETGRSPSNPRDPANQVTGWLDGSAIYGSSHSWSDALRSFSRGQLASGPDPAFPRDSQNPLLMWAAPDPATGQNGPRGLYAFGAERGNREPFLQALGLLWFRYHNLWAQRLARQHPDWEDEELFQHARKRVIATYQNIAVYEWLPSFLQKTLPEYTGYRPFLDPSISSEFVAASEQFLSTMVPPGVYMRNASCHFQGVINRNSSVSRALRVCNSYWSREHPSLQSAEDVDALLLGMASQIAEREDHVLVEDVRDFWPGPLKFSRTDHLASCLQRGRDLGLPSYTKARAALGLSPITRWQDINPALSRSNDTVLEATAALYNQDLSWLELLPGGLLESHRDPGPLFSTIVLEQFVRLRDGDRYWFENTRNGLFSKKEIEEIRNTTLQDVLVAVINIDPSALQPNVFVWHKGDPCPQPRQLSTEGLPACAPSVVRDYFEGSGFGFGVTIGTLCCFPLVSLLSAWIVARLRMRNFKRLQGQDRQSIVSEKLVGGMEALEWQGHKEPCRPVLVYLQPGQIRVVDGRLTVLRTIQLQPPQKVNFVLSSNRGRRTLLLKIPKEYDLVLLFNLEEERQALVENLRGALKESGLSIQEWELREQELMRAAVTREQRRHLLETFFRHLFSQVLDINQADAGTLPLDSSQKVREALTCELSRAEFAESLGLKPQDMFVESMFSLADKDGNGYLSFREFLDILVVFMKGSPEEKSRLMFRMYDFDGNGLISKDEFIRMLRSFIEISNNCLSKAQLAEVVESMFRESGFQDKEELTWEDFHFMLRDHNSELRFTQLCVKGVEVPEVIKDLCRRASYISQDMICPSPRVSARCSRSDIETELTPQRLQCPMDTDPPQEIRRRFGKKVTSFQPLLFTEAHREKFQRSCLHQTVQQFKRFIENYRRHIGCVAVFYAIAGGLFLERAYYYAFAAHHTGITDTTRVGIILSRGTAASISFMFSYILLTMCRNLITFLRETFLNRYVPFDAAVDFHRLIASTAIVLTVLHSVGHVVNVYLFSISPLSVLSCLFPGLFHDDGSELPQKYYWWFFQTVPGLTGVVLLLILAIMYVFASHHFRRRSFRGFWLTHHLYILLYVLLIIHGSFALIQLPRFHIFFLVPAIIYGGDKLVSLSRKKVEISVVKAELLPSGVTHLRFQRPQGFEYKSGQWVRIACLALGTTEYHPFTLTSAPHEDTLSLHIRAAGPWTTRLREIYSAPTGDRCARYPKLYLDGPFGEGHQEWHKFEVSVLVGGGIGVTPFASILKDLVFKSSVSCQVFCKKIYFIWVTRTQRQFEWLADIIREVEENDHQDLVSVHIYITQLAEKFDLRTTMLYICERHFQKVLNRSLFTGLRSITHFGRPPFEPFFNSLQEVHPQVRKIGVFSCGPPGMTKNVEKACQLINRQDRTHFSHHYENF

SMILES: C=C[C@H](OC(C)=O)c1ccc(OC(C)=O)cc1 [compound 26, 1′S-1′-acetoxychavicol acetate]
- IC50 (Duox1 (hDuox1)): 30.8 µM
- IC50 (Nox2 (hNox2)): 42.3 µM
- IC50 (Nox4 (hNox4)): 31.3 µM
- IC50 (Nox1 (hNox1)): 32.7 µM
